Results published in patent US8653263B2 (Janssen Pharmaceutica, priority 2009, dated 2014).

Target: human orexin-2 receptor (Homo sapiens (Human), UniProt O43614)
Assay: Human orexin 2 receptor radioligand binding ([3H]-EMPA competition)
Details: HEK293 cells stably expressing human orexin-2 receptor; [3H]-EMPA 5 nM final; apparent Ki=IC50/(1+C/Kd), Kd=2 nM; read-out: OR 2 Ki

human orexin-2 receptor, sequence (O43614 whole entry): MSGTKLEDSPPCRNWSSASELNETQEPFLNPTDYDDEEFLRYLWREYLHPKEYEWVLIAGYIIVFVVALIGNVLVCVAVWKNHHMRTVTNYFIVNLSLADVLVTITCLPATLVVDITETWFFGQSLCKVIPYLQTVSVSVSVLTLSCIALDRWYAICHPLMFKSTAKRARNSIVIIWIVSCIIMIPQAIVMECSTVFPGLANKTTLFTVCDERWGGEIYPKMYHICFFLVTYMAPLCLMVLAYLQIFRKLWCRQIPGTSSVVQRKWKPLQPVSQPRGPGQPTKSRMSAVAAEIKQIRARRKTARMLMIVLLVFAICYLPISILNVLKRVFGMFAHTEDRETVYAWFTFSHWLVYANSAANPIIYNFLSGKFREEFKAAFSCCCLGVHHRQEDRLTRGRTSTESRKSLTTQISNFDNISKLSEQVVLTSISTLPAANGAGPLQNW

Row | Ki [µM] | Compound
1 | 0.289 | O=C(c1ccccc1-c1ccccc1)N1CC2CN(c3nccc(-c4ccccc4)n3)CC2C1 (centres unmarked) [Example 164, 2-(Biphenyl-2-ylcarbonyl)-5-(4-phenylpyrimidin-2-yl)octahydropyrrolo[3,4-c]pyrrole]
2 | 0.852 | COc1cccc(OC)c1C(=O)N1CC2CN(c3cnc4ccccc4n3)CC2C1 (centres unmarked) [Example 165, 2-{5-[(2,6-Dimethoxyphenyl)carbonyl]hexahydropyrrolo[3,4-c]pyrrol-2(1H)-yl}quinoxaline]
3 | 0.465 | COc1cccc(OC)c1C(=O)N1CC2CN(c3nccc(-c4ccccc4)n3)CC2C1 (centres unmarked) [Example 166, 2-[(2,6-Dimethoxyphenyl)carbonyl]-5-(4-phenylpyrimidin-2-yl)octahydropyrrolo[3,4-c]pyrrole]
4 | 0.411 | COc1ccc(C(=O)N2CC3CN(c4nccc(-c5ccccc5)n4)CC3C2)c(OC)c1 (centres unmarked) [Example 167, 2-[(2,4-Dimethoxyphenyl)carbonyl]-5-(4-phenylpyrimidin-2-yl)octahydropyrrolo[3,4-c]pyrrole]
5 | 0.066 | O=C(c1ccccc1-c1ccccc1)N1CC2CN(c3cnc4ccccc4n3)CC2C1 (centres unmarked) [Example 168, 2-[5-(Biphenyl-2-ylcarbonyl)hexahydropyrrolo[3,4-c]pyrrol-2(1H)-yl]quinoxaline]
6 | 0.595 | O=C(c1ccccc1-c1ccccc1)N1CC2CN(c3nc4ccccc4s3)CC2C1 (centres unmarked) [Example 169, 2-[5-(Biphenyl-2-ylcarbonyl)hexahydropyrrolo[3,4-c]pyrrol-2(1H)-yl]-1,3-benzothiazole]
7 | 0.945 | COc1ccc(C(=O)N2CC3CN(c4cc(C)c5ccccc5n4)CC3C2)c(OC)c1 (centres unmarked) [Example 170, 2-{5-[(2,4-Dimethoxyphenyl)carbonyl]hexahydropyrrolo[3,4-c]pyrrol-2(1H)-yl}-4-methylquinoline]
8 | 0.78 | COc1ccc(C(=O)N2CC3CN(c4nc5ccc(OC)cc5s4)CC3C2)c(OC)c1 (centres unmarked) [Example 171, 2-{5-[(2,4-Dimethoxyphenyl)carbonyl]hexahydropyrrolo[3,4-c]pyrrol-2(1H)-yl}-6-methoxy-1,3-benzothiazole]
9 | 0.45 | COc1ccc(C(=O)N2CC3CN(c4nc5ccc(C)cc5s4)CC3C2)c(OC)c1 (centres unmarked) [Example 172, 2-{5-[(2,4-Dimethoxyphenyl)carbonyl]hexahydropyrrolo[3,4-c]pyrrol-2(1H)-yl}-6-methyl-1,3-benzothiazole]
10 | 0.95 | Cc1cccc(N2CC3CN(C(=O)c4ccccc4-c4ccccc4)CC3C2)n1 (centres unmarked) [Example 173, 2-(Biphenyl-2-ylcarbonyl)-5-(6-methylpyridin-2-yl)octahydropyrrolo[3,4-c]pyrrole]
11 | 0.729 | Cc1ccnc(N2CC3CN(C(=O)c4ccccc4-c4ccccc4)CC3C2)n1 (centres unmarked) [Example 174, 2-(Biphenyl-2-ylcarbonyl)-5-(4-methylpyrimidin-2-yl)octahydropyrrolo[3,4-c]pyrrole]
12 | 0.669 | O=C(c1ccccc1-c1ccccc1)N1CC2CN(c3ccc4ccccc4n3)CC2C1 (centres unmarked) [Example 175, 2-[5-(Biphenyl-2-ylcarbonyl)hexahydropyrrolo[3,4-c]pyrrol-2(1H)-yl]quinoline]
13 | 0.236 | O=C(c1ccccc1-c1ccccc1)N1CC2CN(c3nc4ccc(F)cc4s3)CC2C1 (centres unmarked) [Example 176, 2-[5-(Biphenyl-2-ylcarbonyl)hexahydropyrrolo[3,4-c]pyrrol-2(1H)-yl]-6-fluoro-1,3-benzothiazole]
14 | 0.339 | COc1ccnc(N2CC3CN(C(=O)c4ccccc4-c4ccccc4)CC3C2)n1 (centres unmarked) [Example 177, 2-(Biphenyl-2-ylcarbonyl)-5-(4-methoxypyrimidin-2-yl)octahydropyrrolo[3,4-c]pyrrole]
15 | 0.123 | Cc1cc(N2CC3CN(C(=O)c4ccccc4-c4ccccc4)CC3C2)nc2ccccc12 (centres unmarked) [Example 178, 2-[5-(Biphenyl-2-ylcarbonyl)hexahydropyrrolo[3,4-c]pyrrol-2(1H)-yl]-4-methylquinoline]
16 | 9 | COc1ccc(C(=O)N2CC3CN(c4nccc(OC)n4)CC3C2)c(OC)c1 (centres unmarked) [Example 179, (2,4-Dimethoxy-phenyl)-[5-(4-methoxy-pyrimidin-2-yl)-hexahydro-pyrrolo[3,4-c]pyrrol-2-yl]-methanone]
17 | 2.3 | COc1ccccc1C(=O)N1CC2CN(c3nc4ccccc4o3)CC2C1 (centres unmarked) [Example 180, (5-Benzooxazol-2-yl-hexahydro-pyrrolo[3,4-c]pyrrol-2-yl)-(2-methoxy-phenyl)-methanone]
18 | 3.56 | O=C(c1ccccc1-c1cccnc1)N1CC2CN(c3cnc4ccccc4n3)CC2C1 (centres unmarked) [Example 181, (2-Pyridin-3-yl-phenyl)-(5-quinoxalin-2-yl-hexahydro-pyrrolo[3,4-c]pyrrol-2-yl)-methanone]
19 | 2.2 | Cc1cc(C)nc(N2CC3CN(C(=O)c4ccccc4-c4ncc[nH]4)CC3C2)n1 (centres unmarked) [Example 182, [5-(4,6-Dimethyl-pyrimidin-2-yl)-hexahydro-pyrrolo[3,4-c]pyrrol-2-yl]-[2-(1H-imidazol-2-yl)-phenyl]-methanone]

Row | Ki [µM] | Compound
20 | 5 | COc1ccc(C(=O)N2CC3CN(c4nc5ccccc5o4)CC3C2)c(OC)c1 (centres unmarked) [Example 183, (5-Benzooxazol-2-yl-hexahydro-pyrrolo[3,4-c]pyrrol-2-yl)-(2,4-dimethoxy-phenyl)-methanone]
21 | 1.04 | O=C(c1ccccc1-c1ccccc1)N1CC2CN(c3nc4ccccc4o3)CC2C1 (centres unmarked) [Example 184, (5-Benzooxazol-2-yl-hexahydro-pyrrolo[3,4-c]pyrrol-2-yl)-biphenyl-2-yl-methanone]
22 | 9 | COc1ccc(C(=O)N2CC3CN(c4cccc(C)n4)CC3C2)c(OC)c1 (centres unmarked) [Example 185, (2,4-Dimethoxy-phenyl)-[5-(6-methyl-pyridin-2-yl)-hexahydro-pyrrolo[3,4-c]pyrrol-2-yl]-methanone]
23 | 10 | COc1ccc(C(=O)N2CC3CN(c4nccc(C)n4)CC3C2)c(OC)c1 (centres unmarked) [Example 186, (2,4-Dimethoxy-phenyl)-[5-(4-methyl-pyrimidin-2-yl)-hexahydro-pyrrolo[3,4-c]pyrrol-2-yl]-methanone]
24 | 2.28 | COc1ccc2nc(N3CC4CN(C(=O)c5ccccc5-c5ccccc5)CC4C3)sc2c1 (centres unmarked) [Example 187, Biphenyl-2-yl-[5-(6-methoxy-benzothiazol-2-yl)-hexahydro-pyrrolo[3,4-c]pyrrol-2-yl]-methanone]
25 | 2.61 | Cc1ccc2nc(N3CC4CN(C(=O)c5ccccc5-c5ccccc5)CC4C3)sc2c1 (centres unmarked) [Example 188, Biphenyl-2-yl-[5-(6-methyl-benzothiazol-2-yl)-hexahydro-pyrrolo[3,4-c]pyrrol-2-yl]-methanone]
26 | 1.6 | COc1cccc(OC)c1C(=O)N1CC2CN(c3nc4ccc(Cl)cc4s3)CC2C1 (centres unmarked) [Example 189, [5-(6-Chloro-benzothiazol-2-yl)-hexahydro-pyrrolo[3,4-c]pyrrol-2-yl]-(2,6-dimethoxy-phenyl)-methanone]
27 | 1.3 | O=C(c1ccccc1-c1ccccc1)N1CC2CN(c3nc4ccc(Cl)cc4s3)CC2C1 (centres unmarked) [Example 190, Biphenyl-2-yl-[5-(6-chloro-benzothiazol-2-yl)-hexahydro-pyrrolo[3,4-c]pyrrol-2-yl]-methanone]
28 | 1.02 | COc1cccc(OC)c1C(=O)N1CC2CN(c3nc4ccccc4o3)CC2C1 (centres unmarked) [Example 192, (5-Benzooxazol-2-yl-hexahydro-pyrrolo[3,4-c]pyrrol-2-yl)-(2,6-dimethoxy-phenyl)-methanone]
29 | 1.16 | Cc1ccc(-c2ccccc2C(=O)N2CC3CN(c4cnc5ccccc5n4)CC3C2)cc1 (centres unmarked) [Example 193, (4′-Methyl-biphenyl-2-yl)-(5-quinoxalin-2-yl-hexahydro-pyrrolo[3,4-c]pyrrol-2-yl)-methanone]
30 | 10 | O=C(c1ccccc1-c1ccc(C(F)(F)F)cc1)N1CC2CN(c3cnc4ccccc4n3)CC2C1 (centres unmarked) [Example 194, (5-Quinoxalin-2-yl-hexahydro-pyrrolo[3,4-c]pyrrol-2-yl)-(4′-trifluoromethyl-biphenyl-2-yl)-methanone]
31 | 1.1 | Cc1ccc(-c2ccccc2C(=O)N2CC3CN(c4nccc(-c5ccccc5)n4)CC3C2)cc1 (centres unmarked) [Example 195, (4′-Methyl-biphenyl-2-yl)-[5-(4-phenyl-pyrimidin-2-yl)-hexahydro-pyrrolo[3,4-c]pyrrol-2-yl]-methanone]
32 | 10 | O=C(c1ccccc1-c1ccc(C(F)(F)F)cc1)N1CC2CN(c3nccc(-c4ccccc4)n3)CC2C1 (centres unmarked) [Example 196, [5-(4-Phenyl-pyrimidin-2-yl)-hexahydro-pyrrolo[3,4-c]pyrrol-2-yl]-(4′-trifluoromethyl-biphenyl-2-yl)-methanone]
33 | 1.16 | COc1ccc(C(=O)N2CC3CN(c4cnc5ccccc5n4)CC3C2)c(C)c1 (centres unmarked) [Example 197, (4-Methoxy-2-methyl-phenyl)-(5-quinoxalin-2-yl-hexahydro-pyrrolo[3,4-c]pyrrol-2-yl)-methanone]
34 | 1.31 | O=C(c1ccccc1-c1cccc(Cl)c1)N1CC2CN(c3nccc(-c4ccccc4)n3)CC2C1 (centres unmarked) [Example 198, (3′-Chloro-biphenyl-2-yl)-[5-(4-phenyl-pyrimidin-2-yl)-hexahydro-pyrrolo[3,4-c]pyrrol-2-yl]-methanone]
35 | 3.78 | COc1ccnc(N2CC3CN(C(=O)c4ccccc4OC)CC3C2)n1 (centres unmarked) [Example 199, (2-Methoxy-phenyl)-[5-(4-methoxy-pyrimidin-2-yl)-hexahydro-pyrrolo[3,4-c]pyrrol-2-yl]-methanone]
36 | 1.37 | COc1ccccc1C(=O)N1CC2CN(c3nc(C)cc(C)n3)CC2C1 (centres unmarked) [Example 201, [5-(4,6-Dimethyl-pyrimidin-2-yl)-hexahydro-pyrrolo[3,4-c]pyrrol-2-yl]-(2-methoxy-phenyl)-methanone]
37 | 5 | Cc1cc(C)nc(N2CC3CN(C(=O)c4ccccc4C#N)CC3C2)n1 (centres unmarked) [Example 202, 2-[5-(4,6-Dimethyl-pyrimidin-2-yl)-hexahydro-pyrrolo[3,4-c]pyrrole-2-carbonyl]-benzonitrile]

Row | Compound | Ki [µM]
38 | COc1ccc(C(=O)N2CC3CN(c4cnc5ccccc5n4)CC3C2)c(OC)c1 (centres unmarked) [Example 191, (2,4-Dimethoxy-phenyl)-(5-quinoxalin-2-yl-hexahydro-pyrrolo[3,4-c]pyrrol-2-yl)-methanone] | 2.66
